From US4839155A, “Iodotamoxifen derivatives and use for estrogen receptor-positive breast cancer detection and therapy” (National Research Development Corporation, priority 1986, dated 1989)

What was measured:
MCF-7 cells = assay: MCF-7 cell growth, % of control; type: cell-based, human; settings: for activity at 1 µM / activity at 0.1 µM / activity at 0.01 µM: Homo sapiens, MCF7, 37° C., 24 hours, ± standard deviation of four samples, >100 = growth stimulating (estrogenic); for activity at 1 µM: 10^-6 M; for activity at 0.1 µM: 10^-7 M; for activity at 0.01 µM: 10^-8 M; for activity in MCF-7 cell growth tests (in words): evaluation of Table 2, compared with tamoxifen
estrogen receptor (ER) = settings: prior art; cited from earlier work
estrogen receptor [1] = settings: K. E. Allen et al. (1980); cited from earlier work
rat uterine weight = settings: compared with tamoxifen; K. E. Allen et al. (1980); cited from earlier work
[2] = cited from earlier work
[3] = molecular target: T1, estrogen receptor (rat uterine cytosol) (Rattus norvegicus, UniProt P06211); assay: Relative binding affinity (RBA), rat uterine cytosol, inhibition of (3H)estradiol binding; settings: RBA = [I50](estradiol)/[I50](test compound) × 100; 18° C., 30 minutes, 5×10^-9 M (3H)estradiol
T1 construct: from tissue; host or cells: immature rat uterus, cytosol
T1 sequence (P06211 1-600): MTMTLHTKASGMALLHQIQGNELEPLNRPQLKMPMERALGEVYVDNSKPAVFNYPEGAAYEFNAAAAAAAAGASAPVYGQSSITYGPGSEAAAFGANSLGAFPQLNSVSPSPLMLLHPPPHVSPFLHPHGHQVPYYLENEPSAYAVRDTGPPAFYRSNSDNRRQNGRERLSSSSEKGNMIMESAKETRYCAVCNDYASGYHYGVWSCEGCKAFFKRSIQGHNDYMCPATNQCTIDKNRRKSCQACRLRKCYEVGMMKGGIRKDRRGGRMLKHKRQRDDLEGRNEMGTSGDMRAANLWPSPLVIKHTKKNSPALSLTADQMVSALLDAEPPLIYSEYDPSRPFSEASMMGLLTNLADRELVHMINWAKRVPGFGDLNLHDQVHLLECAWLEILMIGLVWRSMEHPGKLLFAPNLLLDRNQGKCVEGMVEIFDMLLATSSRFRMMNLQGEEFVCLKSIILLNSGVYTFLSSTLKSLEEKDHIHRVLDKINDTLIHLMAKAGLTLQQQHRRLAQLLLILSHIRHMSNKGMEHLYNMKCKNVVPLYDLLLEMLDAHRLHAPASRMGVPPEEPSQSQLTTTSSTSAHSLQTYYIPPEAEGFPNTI
Procedure: Immature rat uterine cytosol was incubated at 18° C. for 30 minutes with 5×10^-9 M (^3 H)estradiol in the absence and presence of increasing amounts (10^-9 -10^-5 M) of the test compound or unlabelled estradiol (control). Unbound compounds were then removed with dextran-coated charcoal, and the amounts of estrogen receptor-bound (^3 H)estradiol were measured.
(§1) The higher the values in the rat uterine cytosol test the greater the antiestrogenic effect. In the whole cell test, on the other hand, the estrogen receptors are localised in the cell nucleus and therefore bound to DNA. In the whole cell test, a low value indicating poor binding to cell nucleus ER and consequently low estrogenicity, can be considered favorable.

[4] = molecular target: T2, estrogen receptor (MCF-7 whole cells) (Homo sapiens, UniProt P03372); assay: Relative binding affinity (RBA), MCF-7 whole cell assay, inhibition of (3H)estradiol binding; settings: RBA = [I50](estradiol)/[I50](test compound) × 100; 37° C., 50 minutes, 10^-9 M (3H)estradiol
T2 construct: host or cells: MCF-7 whole cells
T2 sequence (P03372 1-595): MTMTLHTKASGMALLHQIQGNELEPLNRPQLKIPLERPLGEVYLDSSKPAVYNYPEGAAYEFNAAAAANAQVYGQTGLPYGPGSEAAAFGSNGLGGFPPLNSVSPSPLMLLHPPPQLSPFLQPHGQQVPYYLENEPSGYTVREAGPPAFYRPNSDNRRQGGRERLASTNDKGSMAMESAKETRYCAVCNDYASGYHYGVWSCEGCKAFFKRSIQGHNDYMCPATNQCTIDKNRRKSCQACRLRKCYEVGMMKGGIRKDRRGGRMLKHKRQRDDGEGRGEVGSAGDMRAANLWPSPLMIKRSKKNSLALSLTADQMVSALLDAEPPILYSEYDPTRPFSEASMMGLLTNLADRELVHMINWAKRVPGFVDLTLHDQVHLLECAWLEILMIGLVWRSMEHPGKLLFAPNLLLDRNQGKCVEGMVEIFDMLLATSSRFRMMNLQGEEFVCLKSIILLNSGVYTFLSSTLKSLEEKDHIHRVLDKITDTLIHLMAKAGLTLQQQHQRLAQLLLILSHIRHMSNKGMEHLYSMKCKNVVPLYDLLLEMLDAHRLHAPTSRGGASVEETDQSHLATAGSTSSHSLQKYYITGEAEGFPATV
Procedure: A whole cell assay was then performed using the MCF-7 human breast cancer cell line obtained from the Michigan Cancer Foundation, Detroit, USA. MCF-7 cells were maintained at 37° C. in monolayer culture in closed T-25 dishes in mininal essential medium (MEM) supplemented with L-glutamine (0.6 mg/ml), gentamycin (40 micrograms/ml). penicillin (100 U/ml) streptomycin (100 micrograms/ml) and 10% inactivated fetal calf serum (inactivated for 1 hour at 56° C.). The MCF-7 cells were incubated at 37° C. for 50 minutes with 10^-9 M (^3 H)estradiol in the absence or presence of increasing amounts (10^-10 -10^-5 M) of the test compound or unlabelled estradiol (control). Bound compounds were then extracted with ethanol, and the amounts of estrogen receptor bound (^3 H) estradiol were measured. The RBA values were calculated as for the rat uterine cytosol.
as §1

[5] = test system: estrogen receptor-positive breast cancer; assay: Potency in relation to estrogen receptor-positive breast cancer (summary statement); settings: compared with tamoxifen
[6] = in vivo; prior art; cited from earlier work
estrogen receptor [7] = settings: prior art; cited from earlier work

| SMILES | activity at 1 µM (MCF-7 cells) | activity at 0.1 µM (MCF-7 cells) | activity at 0.01 µM (MCF-7 cells) | further results |
| --- | --- | --- | --- | --- |
| CC/C(=C(/c1ccc(Br)cc1)c1ccc(OCCN(C)C)cc1)c1ccccc1 [Z isomer of 4-bromotamoxifen, reference compound] | 174 ± 8% | 163 ± 4% | 110 ± 3% | – |
| CC/C(=C(\c1ccccc1)c1ccc(OCCN(C)C)cc1)c1ccccc1 [Tamoxifen, Z (1,2-diphenyl)-1-[4-(2-dimethylaminoethoxy)-phenyl]-1-butene] | 30 ± 1% | 52 ± 1% | – | affinity for the estrogen receptor (ER) (estrogen receptor (ER)): relatively low affinity |
| CC/C(=C(\c1ccc(C)cc1)c1ccc(OCCN(C)C)cc1)c1ccccc1 [methyl] | – | – | – | estrogen receptor affinity in vitro, compared with tamoxifen (estrogen receptor [1]): approximately equiactive; anti-estrogenic activity, in vivo rat uterine weight tests (rat uterine weight): lower anti-estrogenic activity than tamoxifen |
| CC/C(=C(\c1ccc(I)cc1)c1ccc(OCCN2CCCC2)cc1)c1ccccc1 [Pyrrolidino analogue of 4-iodotamoxifen, E-1-[4-(2-(N-pyrrolidino)ethoxy)phenyl]-1-(4-iodophenyl-2-phenyl-1-butene)] | 20 ± 2% | 27 ± 3% | 84 ± 5% | activity in MCF-7 cell growth tests (in words) (MCF-7 cells): particularly active |
| CC/C(=C(\c1ccc(Cl)cc1)c1ccc(OCCN(C)C)cc1)c1ccccc1 [chloro] | – | – | – | estrogen receptor affinity in vitro, compared with tamoxifen (estrogen receptor [1]): approximately equiactive; anti-estrogenic activity, in vivo rat uterine weight tests (rat uterine weight): lower anti-estrogenic activity than tamoxifen; potency compared with tamoxifen (report by K. E. Allen et al.) [2]: of no greater potency than tamoxifen |
| CC/C(=C(\c1ccc(I)cc1)c1ccc(OCCN(CC)CC)cc1)c1ccccc1 [E-1-[4-(2-Diethylaminoethoxy)phenyl]-1-(4-iodophenyl)-2-phenyl-1-butene] | 23 ± 2% | 35 ± 5% | 101 ± 7% | – |
| CC/C(=C(\c1ccc(OC)cc1)c1ccc(OCCN(C)C)cc1)c1ccccc1 [4-methoxy derivative] | – | – | – | activity in other tests ([2]; compared with tamoxifen, K. E. Allen et al. (1980)): about the same as tamoxifen |
| CC/C(=C(\c1ccc(F)cc1)c1ccc(OCCN(C)C)cc1)c1ccccc1 [fluoro] | – | – | – | estrogen receptor affinity in vitro, compared with tamoxifen (estrogen receptor [1]): approximately equiactive; anti-estrogenic activity, in vivo rat uterine weight tests (rat uterine weight): lower anti-estrogenic activity than tamoxifen; potency compared with tamoxifen (report by K. E. Allen et al.) [2]: of no greater potency than tamoxifen |
| CC/C(=C(\c1ccc(I)cc1)c1ccc(OCCN(C)C)cc1)c1ccccc1 [4-Iodotamoxifen, E 1-[4-(2-dimethylaminoethoxy)phenyl]-1-(4-iodophenyl)-2-phenyl-1-butene] | 26 ± 2% | 42 ± 6% | 115 ± 6% | RBA (relative binding affinity), Rat uterine cytosol [3]: 30; RBA (relative binding affinity), MCF-7 whole cells [4]: 0.05; potency in relation to estrogen receptor-positive breast cancer [5]: greater potency than tamoxifen |
| CC/C(=C(\c1ccc(Br)cc1)c1ccc(OCCN(C)C)cc1)c1ccccc1 [4-Bromotamoxifen, E 1-[4-(2-dimethylaminoethoxy)phenyl]-1-(4-bromophenyl)-2-phenyl-1-butene] | 63 ± 8% | 101 ± 8% | 130 ± 10% | RBA (relative binding affinity), Rat uterine cytosol [3]: 3; RBA (relative binding affinity), MCF-7 whole cells [4]: 0.02; activity in MCF-7 cell growth tests (in words) (MCF-7 cells): less active than tamoxifen |
| CC/C(=C(\c1ccc(O)cc1)c1ccc(OCCN(C)C)cc1)c1ccccc1 [4-Hydroxytamoxifen] | – | – | – | glucuronidation of the hydroxyl group followed by excretion [6]: rapid glucuronidation of the hydroxyl group followed by excretion; anti-estrogen potency in vitro (estrogen receptor [7]): potent anti-estrogen |
| CC/C(=C(/c1ccc(OCCN(C)C)cc1)c1cccc(I)c1)c1ccccc1 [3-Iodotamoxifen, E 1-[4-(2-dimethylaminoethoxy)phenyl]-1-(3-iodophenyl)-2-phenyl-1-butene] | 27 ± 5% | 68 ± 2% | 100 ± 8% | activity in MCF-7 cell growth tests (in words) (MCF-7 cells): about as active as tamoxifen |
| CC/C(=C(/c1ccc(I)cc1)c1ccc(OCCN(C)C)cc1)c1ccccc1 [Z isomer of 4-iodotamoxifen, reference compound] | 120 ± 3% | 126 ± 6% | 99 ± 13% | – |
